ChEMBL document CHEMBL2396545, “Quinoline drug-heme interactions and implications for antimalarial cytostatic versus cytocidal activities” (J Med Chem, 2013)

How the values were obtained:
[1] = Inhibition of hemozoin formation in parasite digestive vacuole extract by microtiter plate-based high-throughput assay; type: functional
[2] = Inhibition of hemozoin formation in 0.5 M acetate buffer at pH 4.8 after 16 hrs by tube-based high-throughput assay in presence of 0.002 mg/mL phosphatidylcholine; type: functional
[3] = Inhibition of hemozoin formation by microtiter plate-based high-throughput assay; type: functional
[4] = Inhibition of hemozoin formation in 0.5 M acetate buffer at pH 4.8 after 24 hrs by microtiter plate-based high-throughput assay; type: functional
[5] = Inhibition of hemozoin formation in 0.5 M acetate buffer at pH 4.8 after 12 hrs by tube-based high-throughput assay; type: functional
[6] = Inhibition of hemozoin formation in 12.9 M acetate buffer at pH 4.5 at 60 degC after 1 hr by microtiter-based high-throughput assay; type: functional
[7] = Inhibition of hemozoin formation in 0.1 M acetate buffer at pH 4.8 after 12 hrs by tube-based high-throughput assay in presence of Plasmodium yoelii homogenate; type: functional, tissue-based
[8] = Inhibition of hemozoin formation in 8 M acetate buffer at pH 5 after 18 hrs by microtiter plate-based high-throughput assay; type: functional
[9] = Inhibition of hemozoin formation in 9.7 M acetate buffer at pH 4.8 at 60 degC after 2 hrs by microtiter-based high-throughput assay; type: functional
[10] = Inhibition of hemozoin formation in 0.5 M acetate buffer at pH 4.8 after 12 hrs by microtiter plate-based high-throughput assay in presence of trophozoite lysate; type: functional
[11] = Inhibition of hemozoin formation in acetonitrile trophozoite extract by microtiter plate-based high-throughput assay; type: functional

IC50 [2]	IC50 [5]	IC50 [7]	Compound	IC50 [1]	IC50 [3]	IC50 [4]	IC50 [6]	IC50 [8]	IC50 [9]	IC50 [10]	IC50 [11]
117 µM	24.4 µM	43.8 µM	CCN(CC)CCCC(C)Nc1ccnc2cc(Cl)ccc12 (configuration not stated) [CHLOROQUINE]	50 µM	45 µM	45 µM	1.91 µM	1.63 µM	374 µM	400 µM	
	46.9 µM		OC(c1cc(C(F)(F)F)nc2c(C(F)(F)F)cccc12)C1CCCCN1 (configuration not stated) [MEFLOQUINE]	80 µM	120 µM	120 µM	2.9 µM	6.18 µM	476 µM	200 µM	140 µM
201 µM	64.8 µM	41.6 µM	C=C[C@H]1CN2CC[C@H]1C[C@H]2[C@H](O)c1ccnc2ccc(OC)cc12 [QUININE]	100 µM	160 µM	160 µM	3.5 µM			430 µM	78 µM
	15.1 µM		CCN(CC)Cc1cc(Nc2ccnc3cc(Cl)ccc23)ccc1O	60 µM	60 µM	60 µM	1.45 µM	0.85 µM	67 µM	203 µM	73 µM
